Residue numbers refer to the chain shown, from its start. pKd: −log10 of the molar value.
Assays:
Assay in all cases: isothermal titration calorimetry
Assay type in all cases: binding
[1] = molecular target: T1, 3β-OH-Δ^5-6-cholesterol-5β-reductase (5βChR); putative cholesterol dehydrogenase (Limosilactobacillus fermentum, UniProt A0ABF7R4H0, Y152A); conditions: catalytic tetrad mutant
T1 sequence (A0ABF7R4H0 1-249 Y152A): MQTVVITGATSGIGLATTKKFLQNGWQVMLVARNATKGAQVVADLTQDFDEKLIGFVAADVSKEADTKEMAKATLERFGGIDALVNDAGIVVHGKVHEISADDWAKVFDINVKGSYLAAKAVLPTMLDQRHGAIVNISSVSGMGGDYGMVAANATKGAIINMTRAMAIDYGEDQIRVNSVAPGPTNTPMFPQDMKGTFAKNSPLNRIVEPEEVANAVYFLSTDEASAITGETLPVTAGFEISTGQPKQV

[2] = molecular target: T2, 3β-OH-Δ^5-6-cholesterol-5β-reductase (5βChR); putative cholesterol dehydrogenase (Limosilactobacillus fermentum, UniProt A0ABF7R4H0, S139A); conditions: catalytic tetrad mutant
T2 sequence (A0ABF7R4H0 1-249 S139A): T1 sequence (A0ABF7R4H0 1-249 Y152A) with S139A, A152Y

[3] = molecular target: T3, 3β-OH-Δ^5-6-cholesterol-5β-reductase (5βChR); putative cholesterol dehydrogenase (Limosilactobacillus fermentum, UniProt A0ABF7R4H0, M189A); conditions: NADP+ titration; C-terminal substrate-pocket mutant
T3 sequence (A0ABF7R4H0 1-249 M189A): T1 sequence (A0ABF7R4H0 1-249 Y152A) with A152Y, M189A

[4] = molecular target: T4, 3β-OH-Δ^5-6-cholesterol-5β-reductase (5βChR); putative cholesterol dehydrogenase (Limosilactobacillus fermentum, UniProt A0ABF7R4H0, T187A); conditions: NADP+ titration; C-terminal substrate-pocket mutant
T4 sequence (A0ABF7R4H0 1-249 T187A): T1 sequence (A0ABF7R4H0 1-249 Y152A) with A152Y, T187A

[5] = molecular target: T5, 3β-OH-Δ^5-6-cholesterol-5β-reductase (5βChR); putative cholesterol dehydrogenase (Limosilactobacillus fermentum, UniProt A0ABF7R4H0, F190A); conditions: NADP+ titration; C-terminal substrate-pocket mutant
T5 sequence (A0ABF7R4H0 1-249 F190A): T1 sequence (A0ABF7R4H0 1-249 Y152A) with A152Y, F190A

Row | Structure (SMILES) | pKd [1] | pKd [2] | pKd [3] | pKd [4] | pKd [5]
1 | CC(C)CCC[C@@H](C)[C@H]1CC[C@H]2[C@@H]3CC=C4C[C@@H](O)CC[C@]4(C)[C@H]3CC[C@]12C [cholesterol] | 5.35 | 4.61 | – | – | –
2 | NC(=O)c1ccc[n+]([C@@H]2O[C@H](COP(=O)(O)OP(=O)(O)OC[C@H]3O[C@@H](n4cnc5c(N)ncnc54)[C@H](OP(=O)(O)O)[C@@H]3O)[C@@H](O)[C@H]2O)c1 [NADP^+] | – | – | 5.13 | 5.06 | 5.28

Source: publication doi:10.1101/2024.06.04.597308v2 (biorxiv, 2024)
